In patent US20150018369A1 (priority 2012, published 2015):

How the values were obtained:
[1] = test system: CB1; test: [3H]-CP55940 binding competition at CB1; design: species or system human; settings: FIG. 2c
Procedure: Fragments were amplified from total RNA of cell lines by reverse transcriptase-polymerase chain reaction (RT-PCR). Sequence was confirmed and the fragment was cloned into the EcoRI site of the pIRES2-eGFP-express vector. Cells were grown to approximately 80% confluence in 10 cm cell culture dishes, transfected with the cDNA pIRES-eGFP-vector containing the human CB1 or CB2 receptor using LipofectAMINE™ 2000 reagent in the serum-free media Opti-MEM 1 according to the manufacturer's description. Cells were subject to FACS sorting 48 his after transfection and single cell sorted based on dsRed expression into 96-well plates. Of the dsRed expressing positive clones, 3 were validated for CB1 and CB2 protein expression by radioligand binding analysis (methods discussed below).
Cells were grown to 90% confluence, rinsed twice with 1× PBS and stored at −80° C. until further use. To prepare crude cellular membrane fractions, dishes were removed from −80° C. and thawed at room temperature for 5 min. Once thawed, cells were lysed with ice-cold homogenization buffer (50 mM Tris, 1 mM EDTA, 3 mM MgCl2) and gently scraped from the dish. Total cell lysates from 3-5 dishes were collected on ice in 3 ml of ice-cold homogenization buffer Cells were homogenized at 6,500 rpm (PRO Scientific, Oxford, Conn.) twice for 10 sec and centrifuged at 11,500 rpm for 20 min at 4° C. […]

[2] = test system: T98 g cells; test: Cell viability assay (WST-1), SAR of AI compounds at inducing cell death; type: cell-based, human; settings: Homo sapiens, T98G, 72 h
Procedure: Cells were plated media supplemented with 10% serum in 96-well plates (10^4 cells per wellI; 0.1 ml per well). Once they reached ˜70% confluence, they were rinsed with PBS and kept for an additional 24 his in media supplemented with 1% serum, at which time drugs or vehicle (DMSO, 0.1%, prepared in 10 μl serum-free media) were directly added to each well. After 3 days, cell viability was assessed using the Cell Proliferation Reagent WST-1 (Roche, Indianapolis, Ind.). Briefly, WST-1 reagent (10 μl) was added to each well for 3 hrs at 37° C. with 5% CO2 and WST-1 products were read at 450 nm using Packard SpectraCount™.
Because the strongest toxic effect of WIN55212-2 (ST-1) was measured in T98 g cells, these cells are used as readout to study the structure activity relationship (SAR) of AI compounds at inducing cell death. Table 2 provides the chemical structure, potency and efficacy of several AI compounds.

[3] = test system: (HEK293 cells); test: [3H]-WIN55212-2 binding competition in HEK293 cells; design: species or system human; settings: FIG. 2c
Procedure: Cells were grown to 90% confluence, rinsed twice with 1× PBS and stored at −80° C. until further use. To prepare crude cellular membrane fractions, dishes were removed from −80° C. and thawed at room temperature for 5 min. Once thawed, cells were lysed with ice-cold homogenization buffer (50 mM Tris, 1 mM EDTA, 3 mM MgCl2) and gently scraped from the dish. Total cell lysates from 3-5 dishes were collected on ice in 3 ml of ice-cold homogenization buffer Cells were homogenized at 6,500 rpm (PRO Scientific, Oxford, Conn.) twice for 10 sec and centrifuged at 11,500 rpm for 20 min at 4° C. Supernatants were discarded and cell pellets were resuspended in homogenization buffer and tris rated 10 times in ice-cold homogenization buffer. Crude cellular membrane homogenates were stored at −80° C. until further use. […]
Due to the lipophillic nature of the tested compounds, all experiments were performed in silanized glass test tubes (Alltech, Deerfield, Ill.) with silanized pipette tips (VWR Scientific, Brisbane, Calif.) to reduce the loss of ligands. […] For competition binding assays, specific binding was calculated by subtracting the average dpm (disintegrations per minute, dpm) if non-specific points from the individual dpm values for each total binding point and expressed as either fmol/mg for saturation analyses or as a percent of total radioligand binding in competition curves. […]

CCn1c(C)c(C(=O)c2ccc(C)c3ccccc23)c2ccccc21 [ST-11]
competition for [3H]-CP55940 binding at CB1 [1]: but not for [^3H]-CP55940 binding
EC50 [2]: 1300 nM
competition for [3H]-WIN55212-2 binding [3]: competes
